Data reported in ChEMBL document CHEMBL3813615, “Novel JAK1-selective benzimidazole inhibitors with enhanced membrane permeability” (Bioorg Med Chem Lett, 2016).

How the values were obtained:
[1] = biological target: Tyrosine-protein kinase JAK1 (Mus musculus, UniProt P52332); test: Inhibition of FLAG-tagged mouse JAK1 expressed in insect Sf9 cells using biotin-EQEDEPEGDYFEWLE-NH2 as substrate
[2] = biological target: T1, Tyrosine-protein kinase JAK3 (Homo sapiens, UniProt P52333); test: Inhibition of JAK3 (unknown origin) using tyrosine 6 peptide as substrate by z'-lyte assay
T1 sequence (P52333 whole entry): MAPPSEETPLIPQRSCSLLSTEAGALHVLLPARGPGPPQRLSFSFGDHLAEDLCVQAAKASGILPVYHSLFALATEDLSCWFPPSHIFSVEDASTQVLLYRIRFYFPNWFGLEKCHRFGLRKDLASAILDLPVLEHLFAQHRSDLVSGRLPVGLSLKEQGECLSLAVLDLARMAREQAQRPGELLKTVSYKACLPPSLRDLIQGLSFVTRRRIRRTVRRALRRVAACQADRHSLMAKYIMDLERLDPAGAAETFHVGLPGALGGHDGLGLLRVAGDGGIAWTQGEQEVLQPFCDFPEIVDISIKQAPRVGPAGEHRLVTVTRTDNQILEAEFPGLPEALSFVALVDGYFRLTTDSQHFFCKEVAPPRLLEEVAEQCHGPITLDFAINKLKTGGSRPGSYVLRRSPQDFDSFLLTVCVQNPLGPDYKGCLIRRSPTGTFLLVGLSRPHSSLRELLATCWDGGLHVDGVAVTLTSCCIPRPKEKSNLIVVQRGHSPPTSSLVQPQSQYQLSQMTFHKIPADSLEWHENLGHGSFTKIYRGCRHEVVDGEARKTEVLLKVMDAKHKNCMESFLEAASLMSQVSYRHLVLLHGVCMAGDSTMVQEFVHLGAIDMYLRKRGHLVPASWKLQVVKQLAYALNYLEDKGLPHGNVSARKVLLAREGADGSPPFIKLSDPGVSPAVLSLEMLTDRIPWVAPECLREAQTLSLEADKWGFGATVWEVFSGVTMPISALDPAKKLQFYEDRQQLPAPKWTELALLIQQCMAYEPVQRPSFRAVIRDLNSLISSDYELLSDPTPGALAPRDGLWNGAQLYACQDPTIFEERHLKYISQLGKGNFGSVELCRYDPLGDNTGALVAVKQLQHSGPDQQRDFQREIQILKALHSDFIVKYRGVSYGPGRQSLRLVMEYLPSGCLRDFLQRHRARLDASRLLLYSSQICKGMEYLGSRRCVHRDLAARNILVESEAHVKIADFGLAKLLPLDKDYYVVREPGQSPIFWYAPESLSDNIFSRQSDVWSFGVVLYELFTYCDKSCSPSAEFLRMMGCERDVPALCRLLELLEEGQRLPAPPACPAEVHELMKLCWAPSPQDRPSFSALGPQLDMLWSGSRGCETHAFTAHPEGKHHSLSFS

[3] = biological target: Tyrosine-protein kinase JAK1 (Homo sapiens, UniProt P23458); test: Inhibition of JAK1 (unknown origin) using tyrosine 6 peptide as substrate by z'-lyte assay
Chain of Tyrosine-protein kinase JAK1 (Homo sapiens, UniProt P23458) (P23458 whole entry): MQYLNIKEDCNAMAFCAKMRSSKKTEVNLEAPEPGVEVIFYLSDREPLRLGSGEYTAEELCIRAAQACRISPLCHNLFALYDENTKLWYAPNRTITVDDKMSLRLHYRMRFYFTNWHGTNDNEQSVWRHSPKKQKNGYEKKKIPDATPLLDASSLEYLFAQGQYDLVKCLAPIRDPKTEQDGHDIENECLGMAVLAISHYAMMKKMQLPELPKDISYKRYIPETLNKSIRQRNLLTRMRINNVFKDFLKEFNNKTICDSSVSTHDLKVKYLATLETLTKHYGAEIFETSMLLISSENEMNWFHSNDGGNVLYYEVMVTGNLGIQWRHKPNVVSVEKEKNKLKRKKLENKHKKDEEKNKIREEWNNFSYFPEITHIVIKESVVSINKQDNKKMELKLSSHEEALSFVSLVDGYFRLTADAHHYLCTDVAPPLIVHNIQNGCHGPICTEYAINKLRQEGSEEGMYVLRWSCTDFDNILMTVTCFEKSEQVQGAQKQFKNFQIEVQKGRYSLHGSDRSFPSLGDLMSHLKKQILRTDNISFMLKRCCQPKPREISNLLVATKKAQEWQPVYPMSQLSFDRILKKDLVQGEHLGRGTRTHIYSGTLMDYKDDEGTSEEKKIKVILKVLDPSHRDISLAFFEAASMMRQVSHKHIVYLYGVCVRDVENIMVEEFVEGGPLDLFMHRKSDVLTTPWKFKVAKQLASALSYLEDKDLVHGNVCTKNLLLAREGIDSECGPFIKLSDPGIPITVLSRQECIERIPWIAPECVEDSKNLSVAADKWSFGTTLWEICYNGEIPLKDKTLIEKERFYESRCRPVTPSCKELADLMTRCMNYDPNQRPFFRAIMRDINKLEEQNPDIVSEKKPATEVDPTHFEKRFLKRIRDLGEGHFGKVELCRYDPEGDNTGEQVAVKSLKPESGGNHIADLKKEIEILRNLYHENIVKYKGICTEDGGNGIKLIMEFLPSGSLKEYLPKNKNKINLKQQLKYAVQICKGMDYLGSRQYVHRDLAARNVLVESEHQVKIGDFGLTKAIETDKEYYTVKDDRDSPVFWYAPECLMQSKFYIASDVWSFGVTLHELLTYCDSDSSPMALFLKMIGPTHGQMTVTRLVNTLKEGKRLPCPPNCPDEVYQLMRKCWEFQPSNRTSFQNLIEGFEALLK

[4] = biological target: Non-receptor tyrosine-protein kinase TYK2 (Homo sapiens, UniProt P29597); test: Inhibition of TYK2 (unknown origin) using tyrosine 3 peptide as substrate by z'-lyte assay
Chain of Non-receptor tyrosine-protein kinase TYK2 (P29597 whole entry): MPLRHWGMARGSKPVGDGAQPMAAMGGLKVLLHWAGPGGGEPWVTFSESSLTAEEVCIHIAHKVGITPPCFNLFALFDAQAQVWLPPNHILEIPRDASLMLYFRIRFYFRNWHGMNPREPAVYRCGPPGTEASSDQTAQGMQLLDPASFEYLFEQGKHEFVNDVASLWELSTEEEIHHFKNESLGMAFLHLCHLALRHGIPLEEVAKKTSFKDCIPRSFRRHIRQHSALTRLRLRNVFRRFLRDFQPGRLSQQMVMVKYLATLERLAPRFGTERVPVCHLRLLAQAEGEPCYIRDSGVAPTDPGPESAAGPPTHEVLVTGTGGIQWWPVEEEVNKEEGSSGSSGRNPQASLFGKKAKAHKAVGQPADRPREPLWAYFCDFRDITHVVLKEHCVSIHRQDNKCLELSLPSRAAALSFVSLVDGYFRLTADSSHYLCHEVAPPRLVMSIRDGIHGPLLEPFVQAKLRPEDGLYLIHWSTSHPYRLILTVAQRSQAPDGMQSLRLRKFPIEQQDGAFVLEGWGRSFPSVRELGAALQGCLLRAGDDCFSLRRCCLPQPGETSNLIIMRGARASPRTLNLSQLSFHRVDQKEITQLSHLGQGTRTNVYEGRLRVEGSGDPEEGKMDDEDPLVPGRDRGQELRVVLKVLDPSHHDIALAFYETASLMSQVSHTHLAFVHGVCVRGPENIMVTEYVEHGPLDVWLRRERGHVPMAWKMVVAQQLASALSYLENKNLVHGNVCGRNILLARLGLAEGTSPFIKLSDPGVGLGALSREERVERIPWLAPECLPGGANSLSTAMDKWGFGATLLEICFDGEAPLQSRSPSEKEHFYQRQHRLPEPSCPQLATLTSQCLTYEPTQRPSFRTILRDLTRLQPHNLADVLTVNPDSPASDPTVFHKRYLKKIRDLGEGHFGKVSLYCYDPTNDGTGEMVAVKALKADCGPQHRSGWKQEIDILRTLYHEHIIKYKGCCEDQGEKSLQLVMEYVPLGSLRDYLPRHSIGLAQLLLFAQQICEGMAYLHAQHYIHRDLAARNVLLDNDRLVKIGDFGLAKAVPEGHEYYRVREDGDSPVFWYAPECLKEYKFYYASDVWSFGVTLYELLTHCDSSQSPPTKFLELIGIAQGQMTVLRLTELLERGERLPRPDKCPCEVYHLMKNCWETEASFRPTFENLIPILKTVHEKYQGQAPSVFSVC

[5] = biological target: Tyrosine-protein kinase JAK2 (Homo sapiens, UniProt O60674); test: Inhibition of JAK2 (unknown origin) using tyrosine 6 peptide as substrate by z'-lyte assay
Chain of Tyrosine-protein kinase JAK2 (O60674 whole entry): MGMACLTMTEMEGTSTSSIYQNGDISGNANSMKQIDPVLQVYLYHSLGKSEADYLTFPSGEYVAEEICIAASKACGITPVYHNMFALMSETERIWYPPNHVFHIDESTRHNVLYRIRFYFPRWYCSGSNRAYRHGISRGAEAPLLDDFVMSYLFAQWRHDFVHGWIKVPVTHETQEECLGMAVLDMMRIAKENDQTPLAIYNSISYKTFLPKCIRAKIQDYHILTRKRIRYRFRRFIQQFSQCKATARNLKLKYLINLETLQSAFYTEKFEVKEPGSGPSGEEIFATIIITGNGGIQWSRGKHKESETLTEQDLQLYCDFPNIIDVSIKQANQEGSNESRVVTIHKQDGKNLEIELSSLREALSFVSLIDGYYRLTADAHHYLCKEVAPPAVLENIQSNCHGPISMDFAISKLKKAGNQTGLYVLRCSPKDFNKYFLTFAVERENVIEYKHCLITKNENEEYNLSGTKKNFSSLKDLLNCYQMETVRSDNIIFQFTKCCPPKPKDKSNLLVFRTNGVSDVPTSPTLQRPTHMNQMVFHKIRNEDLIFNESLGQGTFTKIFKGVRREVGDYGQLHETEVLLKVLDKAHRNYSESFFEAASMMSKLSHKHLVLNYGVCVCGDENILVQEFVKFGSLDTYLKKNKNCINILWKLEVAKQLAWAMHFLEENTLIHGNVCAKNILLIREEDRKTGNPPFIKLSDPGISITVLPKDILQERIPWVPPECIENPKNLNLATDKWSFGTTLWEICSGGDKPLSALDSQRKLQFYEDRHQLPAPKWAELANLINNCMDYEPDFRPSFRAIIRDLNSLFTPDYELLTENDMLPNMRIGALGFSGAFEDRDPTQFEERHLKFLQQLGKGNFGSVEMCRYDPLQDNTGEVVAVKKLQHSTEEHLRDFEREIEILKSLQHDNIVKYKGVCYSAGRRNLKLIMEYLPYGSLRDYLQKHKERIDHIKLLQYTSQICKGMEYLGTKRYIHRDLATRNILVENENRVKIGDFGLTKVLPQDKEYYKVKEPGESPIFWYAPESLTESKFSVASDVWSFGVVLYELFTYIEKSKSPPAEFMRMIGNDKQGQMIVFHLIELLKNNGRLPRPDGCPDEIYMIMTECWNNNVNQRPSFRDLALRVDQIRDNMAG

Chain of Tyrosine-protein kinase JAK1 (Mus musculus, UniProt P52332) (P52332 whole entry): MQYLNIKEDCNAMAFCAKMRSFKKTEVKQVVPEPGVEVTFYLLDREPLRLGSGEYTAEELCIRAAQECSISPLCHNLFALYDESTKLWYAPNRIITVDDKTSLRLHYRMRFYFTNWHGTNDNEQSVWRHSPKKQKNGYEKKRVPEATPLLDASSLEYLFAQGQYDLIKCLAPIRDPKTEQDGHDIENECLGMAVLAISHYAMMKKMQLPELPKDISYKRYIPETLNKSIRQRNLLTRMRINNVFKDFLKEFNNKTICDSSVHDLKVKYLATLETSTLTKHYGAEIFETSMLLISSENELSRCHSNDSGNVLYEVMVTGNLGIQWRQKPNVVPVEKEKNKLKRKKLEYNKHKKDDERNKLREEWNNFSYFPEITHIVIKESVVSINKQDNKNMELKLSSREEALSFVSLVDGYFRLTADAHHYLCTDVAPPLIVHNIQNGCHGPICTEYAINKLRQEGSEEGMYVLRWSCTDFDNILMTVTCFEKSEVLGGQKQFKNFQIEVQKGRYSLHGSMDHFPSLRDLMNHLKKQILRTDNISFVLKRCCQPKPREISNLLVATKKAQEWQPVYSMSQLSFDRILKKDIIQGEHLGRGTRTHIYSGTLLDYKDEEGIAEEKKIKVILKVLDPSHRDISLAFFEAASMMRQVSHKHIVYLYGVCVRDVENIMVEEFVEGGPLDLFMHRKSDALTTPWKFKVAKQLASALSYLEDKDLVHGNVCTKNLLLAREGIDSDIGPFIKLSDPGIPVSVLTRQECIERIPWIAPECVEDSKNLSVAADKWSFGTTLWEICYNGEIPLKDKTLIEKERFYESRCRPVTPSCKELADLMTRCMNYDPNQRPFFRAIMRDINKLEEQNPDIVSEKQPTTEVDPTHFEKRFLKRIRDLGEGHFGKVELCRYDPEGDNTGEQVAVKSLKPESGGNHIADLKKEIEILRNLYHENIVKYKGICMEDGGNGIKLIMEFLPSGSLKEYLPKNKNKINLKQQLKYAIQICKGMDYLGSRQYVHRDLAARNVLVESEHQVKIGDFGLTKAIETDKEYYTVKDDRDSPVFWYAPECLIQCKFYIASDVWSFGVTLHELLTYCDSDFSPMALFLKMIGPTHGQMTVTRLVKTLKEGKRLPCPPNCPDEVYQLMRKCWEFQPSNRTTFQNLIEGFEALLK

Structure (SMILES)	IC50 [1]	IC50 [2]	IC50 [3]	IC50 [4]	IC50 [5]
NCCn1c(C2CCNCC2)nc2cc(C(N)=O)ccc21	0.05 µM				
NCCCn1c2ccc(C(N)=O)cc2nc1[C@H]1CC[C@H](O)CC1		12.4 µM	5.3 µM	30.7 µM	
NCCCn1c(C2CCNCC2)nc2cc(C(N)=O)ccc21		14.3 µM	5.4 µM	31 µM	
NC(=O)c1ccc2c(c1)nc([C@H]1CC[C@H](O)CC1)n2CCO		1.8 µM	0.08 µM	4.3 µM	3.2 µM
C[C@@H](O)Cn1c2ccc(C(N)=O)cc2nc1[C@H]1CC[C@H](O)CC1		8.5 µM	2 µM	25.7 µM	12.1 µM
CNCCn1c(C2CCNCC2)nc2cc(C(N)=O)ccc21		1.5 µM	0.09 µM	4.1 µM	3.1 µM
NC(=O)c1ccc2c(c1)nc([C@H]1CC[C@H](O)CC1)n2CCCO		20.6 µM	7 µM	42.2 µM	29.7 µM
CNCCn1c2ccc(C(N)=O)cc2nc1[C@H]1CC[C@H](O)CC1		1.9 µM	0.15 µM	5.6 µM	3.9 µM
